Data as given in patent US20130203659A1 (priority 2006, published 2013).
Where two headings read alike, the source gives them in different places. Non-standard residues stand in square brackets, D forms with d. Primed or numbered codes have the meaning given here. No end group written: not given here. Aib′ = alpha aminobutyric acid (source's wording); 20k mPEG = methoxy-polyethylene glycol, 20 kDa; 20k PEG = polyethylene glycol, 20 kDa

Experiments:
[1] = biological target: T1, human GLP-1 receptor (Homo sapiens, UniProt P43220); experiment: In vitro GLP-1 receptor binding (125I-GLP-1 ligand binding assay), human receptor
T1 construct: expressed in transfected cells; host or cells: CHOK1 cells with a cAMP-regulated luciferase reporter construct
Procedure: Cells were sedimented at 1500 rpm for 10 minutes. The resulting pellets were homogenized in 15 mls of ice cold sucrose buffer (25 mM Tris-HCl, 0.32 M Sucrose, 0.25 g/L sodium azide, pH 7.4) with a motorized, glass fitted, Teflon homogenizer. The homogenate was centrifuged at 48,000×g at 4° C. for 10 minutes, resuspended in 25 ml assay buffer (50 mM Tris-HCl, 5 mM MgCl2, 10 mg/ml protease-free BSA, 0.1 mg/ml STI, and 0.1 mg/ml Pefabloc, pH 7.4) with a Tissue-Tearor (Biospec Products), then centrifuged again at 48,000×g for 10 minutes. The pellets were homogenized for a third time in 15 ml assay buffer using the Tissue-Tearor and again centrifuged at 48,000×g for 10 minutes. The resulting pellet was resuspended in assay buffer at a wet weight concentration of 4 mg/ml.
Binding assays were performed in 96-well U-bottom plates. […] Bound radioactivity was determined using a TopCount microplate scintillation and luminescence counter (Packard Instrument Company, PerkinElmer, Shelton, Conn.). Nonlinear regression analyses of resulting concentration curves were performed using GraphPad Prism (GraphPad Software, Inc., San Diego, Calif.).

[2] = biological target: T1, human GLP-1 receptor; experiment: GLP-1R reporter assay (cAMP-regulated luciferase, CHOK1 cells), human receptor; type: cell-based; settings: luciferase reporter, 6 hours exposure; read-out: EC50 human
Procedure: (§1) A. GLP-1R Reporter Assay:
(§2) Increased cAMP levels were measured through enhanced expression of a luciferase reporter gene. […] The evening prior to assay, the cells were washed, the medium replaced with serum-free medium containing 0.5% protease-free bovine serum albumin (BSA), and then cultured overnight. […] Cell lysates were assayed for luciferase activity using the Luciferase Assay System (Promega Corporation, Madison, Wis.). Luciferase activity was measured using a Luminoskan Ascent (Thermo Electron Corporation, Marietta, Ohio). Nonlinear regression analyses of resultant compound concentration curves were performed using GraphPad Prism (GraphPad Software, Inc., San Diego, Calif.).

[3] = biological target: T2, mouse GLP-1 receptor (Mus musculus, UniProt O35659); experiment: GLP-1R reporter assay (cAMP-regulated luciferase, CHOK1 cells), mouse receptor; type: cell-based; settings: 6 hours exposure
T2 construct: expressed in transfected cells; host or cells: CHOK1 cells with a cAMP-regulated luciferase reporter construct
T2 sequence (O35659 22-463): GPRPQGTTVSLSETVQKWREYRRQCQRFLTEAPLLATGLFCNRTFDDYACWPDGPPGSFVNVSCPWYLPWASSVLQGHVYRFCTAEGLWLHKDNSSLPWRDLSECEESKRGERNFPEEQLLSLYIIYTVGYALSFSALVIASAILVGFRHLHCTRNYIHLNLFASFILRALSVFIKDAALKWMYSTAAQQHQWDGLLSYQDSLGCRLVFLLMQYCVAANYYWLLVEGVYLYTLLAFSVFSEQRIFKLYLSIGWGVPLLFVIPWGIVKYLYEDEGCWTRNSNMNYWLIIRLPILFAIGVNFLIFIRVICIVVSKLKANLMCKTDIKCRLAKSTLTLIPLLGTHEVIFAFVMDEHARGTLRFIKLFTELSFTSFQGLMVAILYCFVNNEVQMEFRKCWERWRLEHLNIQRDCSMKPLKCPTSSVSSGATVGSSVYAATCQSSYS
Procedure: as §1, §2

[4] = tested on: db/db diabetic mouse model; experiment: Fed blood glucose in db/db diabetic mice; type: in vivo; settings: for decrease of blood glucose levels over time (FIG. 13): 10 ug injected into each mouse
Procedure: The db/db mice are commercially available from The Jackson Laboratory JAX® GEMM® Strain—Spontaneous Mutation Congenic Mice, and are homozygous for the diabetes spontaneous mutation (Lepr^db). These mice become identifiably obese around 3 to 4 weeks of age. The criterion for selection for each mouse to enter the study was blood glucose of at least 300 mg/dL. Db/db mice at 8.5 weeks of age (for a chronic 1-2 wk study) to about 10-11 weeks of age (for an acute 1-3 day study) were injected once with each tested compound (acute experiment) or multiple times (chronic experiment). […] The mice were then placed in a fresh cage without any chow, so as to limit any variability in blood glucose levels associated with eating behaviors. Time points of 1 hr, 4 hr, 6 hr, and 24 hr were normally taken. When at the 24 hour time point blood glucose values were below where they started, further time points at every 24 hrs were taken until blood glucose returned to the baseline levels. Normal chow was given back after the 6 hr time point.
Tachyphylaxis was determined by multiple injections. A second injection of the compound was administered after the blood glucose levels sufficiently returned to starting baseline levels. At this point, it was evident whether the compound had the same effect/efficacy, or if there was any noticeable tachyphylaxis.

[5] = tested on: C57B16 (normal lean) mice; experiment: Blood glucose and intraperitoneal glucose tolerance test in C57B16 (normal lean) mice; type: in vivo, mouse
Procedure: C57B16 (normal lean) mice were used at 10 to 12 weeks of age. These mice are commercially available through any vendor, such as Jackson Laboratories or Charles River, and are considered to be normal. The term “lean” is used to contrast these mice to obese db/db mice. C57B16 mice were randomized on body weight. […] After 4-5 hrs, an intraperitoneal glucose tolerance test (glucose tolerance test measures the body's ability to metabolize glucose) was performed using 2 g/kg of glucose dose. Blood glucose levels were measured 30 min and 90 minutes after the glucose load was administered and 24 hours or until blood glucose levels were back to the original values.

T1 sequence (P43220 24-463): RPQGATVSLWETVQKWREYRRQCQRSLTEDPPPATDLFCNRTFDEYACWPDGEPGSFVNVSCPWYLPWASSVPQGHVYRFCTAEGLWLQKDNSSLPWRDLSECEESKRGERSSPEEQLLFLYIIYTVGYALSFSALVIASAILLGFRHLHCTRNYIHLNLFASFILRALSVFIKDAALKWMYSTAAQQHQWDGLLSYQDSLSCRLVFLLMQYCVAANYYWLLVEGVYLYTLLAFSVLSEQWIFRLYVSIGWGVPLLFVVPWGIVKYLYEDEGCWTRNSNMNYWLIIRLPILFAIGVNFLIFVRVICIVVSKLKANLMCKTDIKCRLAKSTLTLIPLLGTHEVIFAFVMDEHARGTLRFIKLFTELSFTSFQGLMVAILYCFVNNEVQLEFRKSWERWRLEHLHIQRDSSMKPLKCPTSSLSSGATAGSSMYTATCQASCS

Compound: CC[C@H](C)[C@H](NC(=O)[C@H](Cc1ccccc1)NC(=O)[C@H](CCC(=O)O)NC(=O)[C@H](CCCCN)NC(=O)[C@H](C)NC(=O)[C@H](C)NC(=O)[C@H](CCC(N)=O)NC(=O)CNC(=O)[C@H](CCC(=O)O)NC(=O)[C@H](CC(C)C)NC(=O)[C@H](Cc1ccc(O)cc1)NC(=O)[C@H](CO)NC(=O)[C@H](CO)NC(=O)[C@@H](NC(=O)[C@H](CC(=O)O)NC(=O)[C@H](CO)NC(=O)[C@@H](NC(=O)[C@H](Cc1ccccc1)NC(=O)[C@@H](NC(=O)CNC(=O)[C@H](CCC(=O)O)NC(=O)[C@H](C)NC(=O)[C@H](Cc1c[nH]cn1)NC(=O)[C@@H](N)[C@@H](C)O)[C@@H](C)O)[C@@H](C)O)C(C)C)C(=O)N[C@@H](C)C(=O)N[C@@H](Cc1c[nH]c2ccccc12)C(=O)N[C@@H](CC(C)C)C(=O)N[C@H](C(=O)N[C@@H](CCCCN)C(=O)NCC(=O)N[C@@H](CCCNC(=N)N)C(=O)O)C(C)C [T-GLP-1, T HAEGTFTSDVSSYLEGQAAKEFIAWLVKGR]
- IC50 [1]: 53 nM
- EC50 [2]: 0.3 nM
- EC50 [3]: 2 nM

Compound: cgGLP-9: SEQ ID NO: 6 + 20k PEG dimer (HGEGTFTSDVSSYLEGCAAKEFIAWLVKGRG; not fully specified (residue 17); also: 20k PEG dimer)
- IC50 ([1]; membranes of CHOK1 cells expressing human GLP-1 receptor, 0.2 nM 125I-GLP-1): > 1000 nM
- EC50 [2]: 1 nM
- EC50 [3]: 9 nM

Compound: cgGLP-18: SEQ ID NO: 12 + 20k PEG (HXEGTFTSDVSSYLEGQAAKEFIAWLVKGRGCSGG; 20k PEG)
- ability to lower blood glucose over a 72 hour time span (FIG. 12) ([4]; relative to control): lowered blood glucose relative to control

Compound: cgGLP-20: SEQ ID NO: 25 + 20 k mPEG (H[Aib′]EGTFTSDVSSYLE[Aib′]QAAKEFIAWLVKGRGC(20k mPEG)SG; not fully specified)
- decrease of blood glucose levels over time (FIG. 13) [4]: significant decrease in blood glucose levels over a 48 hour time period

Compound: cgGLP-23: SEQ ID NO: 17 + 20 k PEG (HGEGTFTSDVSSYLE[Aib′]QAAKEFIAWLVKGRGC(20k PEG)-NH2; not fully specified; printed as HGEGT FTSDV SSYLE ZQAAK EFIAW LVKGR GC-amide; also: Aib defined in source as alpha aminobutyric acid)
- decrease of blood glucose levels over time (FIG. 13) [4]: significant decrease in blood glucose levels over a 48 hour time period

Compound: mgGLP32: SEQ ID NO: 18 + 20 k PEG (HGEGTFTSDVSSYLE[Aib′]QAAKEFIAWLVKGRGC(20k PEG)A-NH2; not fully specified)
- lowering of blood glucose levels (FIG. 14) ([4]; 10 ug per mouse): lowered blood glucose levels
- time needed for blood glucose levels to return to normal levels ([4]; 10 ug/mouse): 72 h
- lowering of blood glucose at different doses (FIG. 15) ([4]; 5 and 10 μg/mouse): lowered blood glucose levels for 24 hours in a dose dependent fashion
- tachyphylaxis, multiple dose experiment ([4]; second bolus the next day): The same result was observed
- tachyphylaxis after the 4th dose (FIG. 19) ([5]; 4-day multiple dose experiment): No tachyphylaxyis was observed after the 4th dose
- blood glucose after injection, before the GTT (FIG. 16) ([5]; C57B16 mice, first 52 hours after injection): decreased blood glucose to the same extent during the first 52 hours
- blood glucose during the 4 hour fast (FIG. 19) ([5]; multiple dose experiment): blood glucose was decreased during the 4 hour fast
- blood glucose spike during first and second GTT (FIG. 19) ([5]; multiple dose experiment, GTT after first and 4th injection): no blood glucose spike was seen during the first and second GTT
